Data as given in BindingDB's records for doi:10.1021/ml300214g (2012).

Assay: Inhibition of CSF1R in mouse M-NFS-60 cells assessed as inhibition of cell proliferation after 72 hrs by Celltiter-Blue assay

| SMILES | IC50 [nM] |
| --- | --- |
| Cc1ccnc(C(=O)Nc2ccc(NC(=O)Nc3cc(C(C)(C)C)on3)cc2)c1 | 63.9 |
| CC(C)N1CCC(Oc2ccc(C(=O)Nc3ccc(NC(=O)Nc4cc(C(C)(C)C)on4)cc3)nc2)CC1 | 78 |
| CN1C(C)(C)CC(Oc2ccc(C(=O)Nc3ccc(NC(=O)Nc4cc(C(C)(C)C)on4)cc3)nc2)CC1(C)C | 50.4 |
| CC(C)(C)c1cc(NC(=O)Nc2ccc(NC(=O)c3ccc(OC4CCN(C5CC5)CC4)cn3)cc2)no1 | 150 |
| CCN1C(C)(C)CC(Oc2ccc(C(=O)Nc3ccc(NC(=O)Nc4cc(C(C)(C)C)on4)cc3)nc2)CC1(C)C | 46.3 |
| CC1(C)CC(Oc2ccc(C(=O)Nc3ccc(NC(=O)Nc4cc(C(C)(C)C)on4)cc3)nc2)CC(C)(C)N1 | 74.7 |

The remaining lines, values ahead:

| IC50 [nM] | SMILES |
| --- | --- |
| 223 | Cc1ccc(C(=O)Nc2ccc(NC(=O)Nc3cc(C(C)(C)C)on3)cc2)nc1 |
| 64.4 | CC(C)(C)c1cc(NC(=O)Nc2ccc(NC(=O)c3ccc(OC4CCN(C(C)(C)C)CC4)cn3)cc2)no1 |
